In article PMC11187217, “Anti-adhesive, anti-biofilm and fungicidal action of newly synthesized gemini quaternary ammonium salts” (Scientific Reports, 2024):
Like-named read-outs stand apart in the source and are kept apart here. Marks after values point to notes of the source that are not given here.

Key:
[1] = Krafft point (TK) determination; assay type: physicochemical
Method: Elemental analysis was conducted utilizing Vario EL cube (Elementar, Germany) calibrated on acetanilide. Mass spectra were gain by electrospray ionization mass spectroscopy (ESI–MS) (micrOTOF-Q instrument; Bruker Daltonics, Germany). The ESI–MS aparatus was operated in the positive ion mode (calibrated with the Tunemix™ mixture; Bruker Daltonics; Germany), followed by spectra analysis by the DataAnalysis 3.4 software (Bruker Daltonics, Germany)—resolution of at least 5 ppm. Proton NMR and ^13C NMR measurements were performed on a Bruker AMX-500 spectrometer, utilizing CDCl3 or DMSO-d6 as a solvent. Proton and ^13C chemical shifts (given in ppm) were calibrated to TMS (δ = 0 ppm) as an internal reference. Krafft points were measured according to procedures described in our previous studies Lamch et al.,[82]. Values of CMC for all surfactants were measured utilizing the conductometric method for the compounds’ solutions in milliQ water in the same manner as described in Kula et al.. For all spectra: ^1H NMR, ^13C NMR and ESI–MS as well as appropriate comments see Electronic Supplementary Material.

[2] = system: S. cerevisiae Σ1278b ATCC 42800; test: Cytotoxicity, alamarBlue (resazurin) assay on yeast cells; assay type: cell-based, Saccharomyces cerevisiae; conditions: ¼ and ½ MIC
Method: To determine the cytotoxicity of the tested gemini QAS on yeast cells, an experiment was performed using the alamarBlue colorimetric assay to determine the metabolic activity of cells, using the modified alamarBlue Cell Viability Assay Reagent method. Enzymes of the electron transport system reduce the blue resazurin solution to resorufin, which is fluorescent pink.
The yeast culture S. cerevisiae Σ1278b was incubated at 28 °C for 16 h with shaking (100 rpm), centrifuged (1000 rcf, 5 min) and the optical density was obtained, OD = 1.0, λ = 590 nm. On a 96-well titration plate we spotted 160 μl of YPG medium, 20 μl of yeast culture and the tested gemini QAS at final concentrations of ½ and ¼ MIC. The negative control was YPG medium with resazurin solution, and the positive control was resazurin solution with yeast culture. The plates were incubated at 28 °C for 12 h. Then, 20 μl of resazurin solution (alamarBlue) was added to the wells and the plate was incubated for 4 h in the dark. After incubation, the absorbance was measured at λ = 570 nm and λ = 600 nm and the color change of the wells from blue to pink was observed. The experiment was performed in 3 repetitions.

[3] = system: Candida albicans ATCC 10231; test: MIC/MFC, microdilution method (modified CLSI M27); assay type: cell-based; conditions: 28 °C; for MIC / MFC: Candida albicans, ATCC10231, 24 h; for MIC: C. albicans ATCC 10231, 90% growth inhibition, read-out: Minimum inhibitory concentration (MIC); for MFC: C. albicans ATCC 10231, no growth on solid YPG, read-out: Minimum fungicidal concentration (MFC*)
Method: (§1) Minimum inhibitory concentration (MIC) and minimum fungicidal concentration (MFC) values were determined based on the modified CLSI M27 protocol. The study was performed using the microdilution method on sterile 96-well titration plates. The S. cerevisiae Σ1278b ATCC 42800, S. cerevisiae BY4741 ATCC 201388, C. albicans ATCC 10231, C. albicans 595/20 and R. mucilaginosa ATCC 4056 were incubated for 18 h at 28 °C (without shaking), then centrifuged (1000 rcf, 5 min), and the obtained pellet was suspended in fresh YPG medium and optical density (OD) = 0.25–0.3 was determined at a wavelength (λ) of 590 nm. Next, 10 μl of selected compounds at appropriate final concentrations (5–1280 μM) were spotted into the wells of the titration plate. Then, 80 μl of YPG medium and 10 μl of culture with a fixed OD were added. All tests were performed in triplicate. The plate was incubated at 28 °C for 24 h. The YPG medium was a negative control, while the prepared culture not treated with compounds was a positive control. […] The minimum inhibitory concentration was determined at 90% growth inhibition.
(§2) In order to determine the MFC of selected gemini surfactants, 10 μl of culture was transferred to solid YPG medium from the wells of the titration plate in which MIC was observed and from wells with the compound with higher concentrations. The spotted suspensions were incubated at 28 °C for 24 h. After incubation, inhibition of the growth of microorganisms was observed.

[4] = system: Saccharomyces cerevisiae BY4741 ATCC 201388; test: MIC/MFC, microdilution method (modified CLSI M27); assay type: cell-based; conditions: for MIC: YPG, read-out: Minimum inhibitory concentration (MIC); for MIC / Minimum fungicidal concentration (MFC*): 28 °C; for Minimum fungicidal concentration (MFC*): no growth on solid YPG; for MFC: read-out: Minimum fungicidal concentration (MFC*), S. cerevisiae BY4741, no growth on solid YPG, 28 °C
Method: as §1, §2

[5] = system: Candida albicans 595/20; test: MIC/MFC, microdilution method (modified CLSI M27); assay type: cell-based; conditions: C. albicans 595/20 (clinical isolate), 28 °C; for MIC / MFC: Candida albicans; for MIC: 595/20, 24 h, read-out: Minimum inhibitory concentration (MIC); for MFC: read-out: Minimum fungicidal concentration (MFC*)
Method: as §1, §2

[6] = system: Rhodotorula mucilaginosa ATCC 4056; test: MIC/MFC, microdilution method (modified CLSI M27); assay type: cell-based; conditions: 28 °C; for Minimum inhibitory concentration (MIC) / MIC: YPG; for MIC: read-out: Minimum inhibitory concentration (MIC); for Minimum fungicidal concentration (MFC*): no growth on solid YPG; for MFC: R. mucilaginosa ATCC 4056, no growth on solid YPG, read-out: Minimum fungicidal concentration (MFC*)
Method: as §1, §2

[7] = system: Saccharomyces cerevisiae Σ1278b ATCC 42800; test: MIC/MFC, microdilution method (modified CLSI M27); assay type: cell-based; conditions: S. cerevisiae Σ1278b, 28 °C; for MIC: 90% growth inhibition, YPG, read-out: Minimum inhibitory concentration (MIC); for MFC: no growth on solid YPG, read-out: Minimum fungicidal concentration (MFC*)
Method: as §1, §2

[8] = system: Salmonella Typhimurium TA100; conditions: for Number of colonies: ± SD
Method: The mutagenic potential of the tested gemini QAS was determined using the Ames test[83] using Salmonella Typhimurium TA98 and Salmonella Typhimurium TA100 with defects in histidine biosynthesis. The culture of S. Typhimurium TA98 and S. Typhimurium TA100 was incubated with shaking at 37 °C for 18 h, centrifuged (3000 rpm, 5 min) and OD = 1.5 was determined, at a wavelength of λ = 590 nm. The agar was dissolved and cooled to 42 °C. […] The media were incubated for 48 h at 37 °C. The positive control for the S. Typhimurium TA98 strain was acriflavin (100 μg/ml), and for the S. Typhimurium TA100 strain, sodium azide (15 μg/ml). The negative control was the culture without tested compound and with NaCl (0,9%). After incubation, the colonies were counted and the mutagenicity index (MR) was determined—the ratio of the number of revertants resulting from the mutagenic effect of the tested compound to the number of spontaneous revertants. Experiment was performed in three repetitions.

[9] = system: C. albicans ATCC 10231; test: Filamentation of Candida albicans (DIC microscopy); assay type: cell-based; conditions: 24 h incubation, ½ MIC, 37 °C
Method: The culture of C. albicans ATCC 10231 was incubated in YPG medium at 28 °C for 18 h. Then the culture was centrifuged (1000 rcf, 5 min), and the resulting pellet was suspended in fresh YPG medium to obtain a culture with OD = 0.6. […] The formation of filaments was observed using a differential interference contrast microscope (Olympus BX50 DIC Microscope) after 12 and 24 h of exposure to selected surfactants on C. albicans cells. The control was a culture not exposed to gemini QAS. The experiment was performed based on a modification of the protocol of Obłąk et al. ^46.

[10] = S. cerevisiae BY4741, 90% growth inhibition, 24 h
[11] = R. mucilaginosa ATCC 4056, 90% growth inhibition, 24 h
[12] = R. mucilaginosa ATCC 4056, 24 h
[13] = Saccharomyces cerevisiae, ATCC201388, 24 h, S. cerevisiae BY4741, 90% growth inhibition
[14] = Saccharomyces cerevisiae, ATCC201388, 24 h
[15] = Rhodotorula mucilaginosa, ATCC4056, 24 h
[16] = Saccharomyces cerevisiae, ATCC42800, 24 h

SMILES	TK (Krafft point) [1]	Cytotoxic potential towards mitochondrial metabolism of S. cerevisiae Σ1278b cells [2]	MIC ([3]; YPG) [µM]	MFC [3] [µM]	MIC [4, 10] [µM]	Minimum fungicidal concentration (MFC*) ([4]; S. cerevisiae BY4741, 24 h) [µM]	MIC ([5]; 90% growth inhibition, YPG) [µM]	MFC ([5]; no growth on solid YPG, 24 h) [µM]	Minimum inhibitory concentration (MIC) [6, 11]	Minimum fungicidal concentration (MFC*) [6, 12]	MIC ([7]; 24 h) [µM]	MFC ([7]; 24 h) [µM]	Mutagenicity ratio (MR) ([8]; TA100, ¼ MIC)	Number of colonies ([8]; TA100, ¼ MIC)	Mutagenicity ratio (MR) ([8]; TA100, ½ MIC)	Number of colonies ([8]; TA100, ½ MIC)	Effect on production of filaments by C. albicans [9]	MIC [4, 13] [µM]	MFC [4, 14] [µM]	MFC [6, 15] [µM]	also measured
CCCCCCCCCCCC(=O)N(CCCN(CCC[N+](C)(C)C)C(=O)CCCCCCCCCCC)CCC[N+](C)(C)C [2xC12BrG3]	< 0 °C	did not have cytotoxic potential	640	640	20	320	1280	> 1280	10 10* µM	10 10* µM	240	320	0.95	265.0 ± 7.07	1.23	308.3 ± 6.87	–	–	–	–	MIC [6, 11]: 10 µM; Effect on production of filaments by C. albicans ([9]; listed as Dibromides with 12-carbon hydrophobic chains): completely inhibits filament formation and cell growth
CCCCCCCCCCCC(=O)N(CCCN(CCC[N+](C)(C)C)C(=O)CCCCCCCCCCC)CCC[N+](C)(C)C [2xC12MeCO3G3, dimethyl{{3-[N-(3-{N-[3-(dimethylammonium)propyl]dodecylamido}propyl}dodecylamido}propyl}}ammonium dimethylcarbonate]	< 0 °C	did not have cytotoxic potential	–	–	160	1280	–	–	320 320* µM	320 320* µM	640	> 1280	0.87	243.0 ± 8.49	1.57	438.0 ± 2.83	almost completely inhibited the production of filaments	–	–	–	Minimum inhibitory concentration (MIC) ([3]; C. albicans ATCC 10231, 90% growth inhibition, YPG, 24 h): > 1280 > 1280* µM; Minimum fungicidal concentration (MFC*) ([3]; C. albicans ATCC 10231, no growth on solid YPG, 24 h): > 1280 > 1280* µM; Minimum inhibitory concentration (MIC) ([5]; 90% growth inhibition, YPG, 24 h): > 1280 > 1280* µM; Minimum fungicidal concentration (MFC*) ([5]; no growth on solid YPG, 24 h): > 1280 > 1280* µM
CCCCCCCCCCCCCC(=O)N(CCCN(CCC[N+](C)(C)C)C(=O)CCCCCCCCCCCCC)CCC[N+](C)(C)C [2xC14BrG3]	< 0 °C	did not have cytotoxic potential	640	1280	–	–	640	> 1280	–	–	–	–	0.99	199.0 ± 1.41	0.98	197.0 ± 0.71	had little effect on the formation of filaments	160	1280	320	MIC ([6]; Rhodotorula mucilaginosa, ATCC4056, 24 h, R. mucilaginosa ATCC 4056, 90% growth inhibition): 80 µM; MIC [7, 16]: 360 µM; MFC [7, 16]: 640 µM
CCCCCCCCCCCCCCCC(=O)N(CCCN(CCC[N+](C)(C)C)C(=O)CCCCCCCCCCCCCCC)CCC[N+](C)(C)C [2xC16BrG3]	~ 5 °C	did not have cytotoxic potential	> 1280	> 1280	–	–	> 1280	> 1280	> 640 640* µM	–	–	–	–	380.0 ± 1.37	1.50	–	–	320	> 1280	640	MIC [7, 16]: > 1280 µM; MFC [7, 16]: > 1280 µM; Effect on production of filaments by C. albicans ([9]; listed as dibromides with 16-carbon alkyl chains): largely prevented the formation of filaments
